For assay [1], the target named is T1, AhR (Homo sapiens, UniProt P35869).
T1 sequence (P35869 11-848): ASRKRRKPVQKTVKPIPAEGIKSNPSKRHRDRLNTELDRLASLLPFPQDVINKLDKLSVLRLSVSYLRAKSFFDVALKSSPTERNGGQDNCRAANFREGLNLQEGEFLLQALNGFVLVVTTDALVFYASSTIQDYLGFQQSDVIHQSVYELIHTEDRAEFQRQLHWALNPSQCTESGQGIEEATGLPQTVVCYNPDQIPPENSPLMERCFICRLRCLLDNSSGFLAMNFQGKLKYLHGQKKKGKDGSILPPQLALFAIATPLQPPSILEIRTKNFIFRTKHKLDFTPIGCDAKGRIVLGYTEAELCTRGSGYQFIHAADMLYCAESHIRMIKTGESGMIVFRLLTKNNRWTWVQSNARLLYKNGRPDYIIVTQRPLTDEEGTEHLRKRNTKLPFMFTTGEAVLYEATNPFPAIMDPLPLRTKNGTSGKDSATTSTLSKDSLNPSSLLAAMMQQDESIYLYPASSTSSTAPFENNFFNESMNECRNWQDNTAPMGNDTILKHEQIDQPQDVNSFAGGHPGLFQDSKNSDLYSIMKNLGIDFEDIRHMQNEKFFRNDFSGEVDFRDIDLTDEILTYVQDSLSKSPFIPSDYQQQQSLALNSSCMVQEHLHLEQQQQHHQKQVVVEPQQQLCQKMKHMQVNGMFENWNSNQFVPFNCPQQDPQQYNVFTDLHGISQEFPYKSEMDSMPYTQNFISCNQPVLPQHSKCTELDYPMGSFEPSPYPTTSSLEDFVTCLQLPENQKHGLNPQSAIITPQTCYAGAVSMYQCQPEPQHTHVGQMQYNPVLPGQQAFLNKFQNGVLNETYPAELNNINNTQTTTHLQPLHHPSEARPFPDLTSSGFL
The assay is described as follows: AhR antagonism in human PBMCs - inhibition of IL-22 release. As to conditions: human PBMCs activated with CD3/CD28 agonist mixture, 72 hrs, IL-22 ELISA; average; read-out: hPBMC Inhibition of CD3/CD28 induced IL-22 release: av. pIC50 (converted). Set-up: endogenous in cells. The assay is classed as cell-based. The text has this:
In Vitro Assay 3: AhR Antagonism in Human Peripheral Blood Mononuclear Cells (PBMCs)-Inhibition of Interleukin-22 (IL-22) Release.
PBMCs were isolated from human peripheral blood using Lymphoprep™ and diluted to 1×10^6 cells per ml in RPMI media containing […] foetal bovine serum, 1% penicillin-streptomycin and 1% non essential amino acids. PBMCs were subsequently activated with 1p1 per 100,000 cells of a CD3/CD28 agonist mixture (human T Cell TransAct™ (Miltenyi Biotec)) and then plated at 100,000 cells per well in a round bottom 96 well tissue culture plate. One hour after stimulation seven concentrations of each test compound or vehicle (final [DMSO] 0.2%) were added. The plates were then placed in an incubator at 37° C., ≥85% humidity, 5% […] for 72 hrs before the media was removed and stored at −20° C. until cytokine analysis. IL-22 was measured using human IL-22 DuoSet ELISA (R&D systems) according to the manufacturer's instructions.

Assay [2] addresses T1, AhR. The assay is described as follows: AhR antagonism in U937 cells (Promega P450-Glo assay). The assay is classed as cell-based. Also on record: endogenous in cells; host or cells: U937 cells. As to conditions: CYP1A1 activity readout (Luciferin-CEE), head names VAF347, average, read-out: U937 Antagonist pIC50-VAF347: av. pIC50 (converted). The procedure:
In Vitro Assay 1: AhR Antagonism in U937 Cells (Promega P450-Glo™ Assay)
AhR antagonism was assessed in LJ937 cells (myeloid lineage cell line derived from a human histiocytic lymphoma). Ligand binds the AhR in the cytoplasm, and the AhR-ligand complex translocates to the nucleus and forms a heterodimer with AhR nuclear translocator (Arnt). This complex binds the xenobiotic response element (XRE) in the 5′ upstream region of the CYP1A1 promoter, enhancing CYP1A1 expression. CYP1A1 activity is subsequently determined by assessing the conversion of Luciferin-CEE to luciferin, which in turn reacts with luciferase to produce light. The amount of light produced is directly proportional to cytochrome P450 activity. U937 cells in Ultraculture serum free media (Lonza) were plated at 100,000 cells per well in a round bottom 96 well tissue culture plate. […] The plates were then placed in an incubator at 37° C., ≥85% humidity, 5% CO2 for 24 hrs. After aspiration of the supernatant the CYP1A1 substrate Luciferin-CEE ([Final] 83 μM) was added and incubated for 3 hrs before the reaction was stopped by adding luciferin detection reagent and luminescence was read after 20 minutes.

Turning to `c1ccc2c3c([nH]c2c1)CC[C@@H](Nc1nc(-c2nccs2)nc2c1OCCN2)C3` [Example 13, N-[(3R)-2,3,4,9-tetrahydro-1H-carbazol-3-yl]-2-thiazol-2-yl-7,8-dihydro-6H-pyrimido[5,4-b][1,4]oxazin-4-amine], the values for the IC50 in assay [1] and in assay [2] were above 1.78 µM and 0.229 µM, respectively.
For `Cc1ncc(-c2nc3c(c(N[C@@H]4Cc5cccc6[nH]cc(c56)C4)n2)OCCN3)s1` (single isomer, unassigned) [Example 61] the same measures were 1.26 µM and 0.339 µM.
Consider `C[C@H]1CNc2nc(-c3cncc(F)c3)nc(NCCc3c[nH]c4ccccc34)c2O1` [Example 29, (6S)-2-(5-fluoro-3-pyridyl)-N-[2-(1H-indol-3-yl)ethyl]-6-methyl-7,8-dihydro-6H-pyrimido[5,4-b][1,4]oxazin-4-amine], for which the IC50 in assay [1] was 0.00302 µM; in assay [2], 0.00219 µM.
`COc1ncc(F)cc1-c1nc2c(c(N[C@@H]3CCc4[nH]c5ccccc5c4C3)n1)OCCN2` [Example 65, 2-(5-fluoro-2-methoxy-3-pyridyl)-N-[(3R)-2,3,4,9-tetrahydro-1H-carbazol-3-yl]-7,8-dihydro-6H-pyrimido[5,4-b][1,4]oxazin-4-amine]: in assay [2], the IC50 was above 0.813 µM.
For `Cc1ncc(-c2nc(N[C@@H]3CCc4[nH]c5ccccc5c4C3)c3c(n2)N(S(C)(=O)=O)CCO3)s1` [Example 39, 8-methylsulfonyl-2-(2-methylthiazol-5-yl)-N-[(3R)-2,3,4,9-tetrahydro-1H-carbazol-3-yl]-6,7-dihydropyrimido[5,4-b][1,4]oxazin-4-amine], in assay [2], the IC50 is 0.0891 µM.
Still for that read-out and setting: in the case of `Cc1ccc(-c2nc3c(c(NCCc4c[nH]c5ccccc45)n2)OCCN3)cn1` [Example 15, N-[2-(1H-indol-3-yl)ethyl]-2-(6-methyl-3-pyridyl)-7,8-dihydro-6H-pyrimido[5,4-b][1,4]oxazin-4-amine] it was 0.0891 µM; in that of `COc1ncc(F)cc1-c1nc2c(c(NCCc3c[nH]c4ccccc34)n1)OCCN2` [Example 67, 2-(5-fluoro-2-methoxy-3-pyridyl)-N-[2-(1H-indol-3-yl)ethyl]-7,8-dihydro-6H-pyrimido[5,4-b][1,4]oxazin-4-amine], 0.0661 µM.
Same read-out and setting: under `COC[C@@H]1COc2c(NCCc3c[nH]c4cc(F)ccc34)nc(-c3ccc[nH]c3=O)nc2N1` [Example 47, (R)-3-(4-((2-(6-fluoro-1H-indol-3-yl)ethyl)amino)-7-(methoxymethyl)-7,8-dihydro-6H-pyrimido[5,4-b][1,4]oxazin-2-yl)pyridin-2(1H)-one] stands 0.00324 µM; under `Cc1nc(C)c(-c2nc3c(c(NCCc4c[nH]c5ccccc45)n2)OCCN3)s1` [Example 52, 2-(2,4-dimethylthiazol-5-yl)-N-[2-(1H-indol-3-yl)ethyl]-7,8-dihydro-6H-pyrimido[5,4-b][1,4]oxazin-4-amine], 0.0178 µM; under `Cn1cc(-c2nc3c(c(NCCc4c[nH]c5ccccc45)n2)OCCN3)ccc1=O` [Example 58, 5-[4-[2-(1H-indol-3-yl)ethylamino]-7,8-dihydro-6H-pyrimido[5,4-b][1,4]oxazin-2-yl]-1-methyl-pyridin-2-one], 0.347 µM.
On the same count and under the same terms, in the case of `Cc1ncc(-c2nc3c(c(N[C@@H]4CCc5[nH]c6ccccc6c5C4)n2)OCCN3)s1` [Example 51, 2-(2-methylthiazol-5-yl)-N-[(3R)-2,3,4,9-tetrahydro-1H-carbazol-3-yl]-7,8-dihydro-6H-pyrimido[5,4-b][1,4]oxazin-4-amine] it was 0.204 µM; in that of `CC1(C)COc2c(NCCc3c[nH]c4ccccc34)nc(-c3cncc(F)c3)nc2N1` [Example 31, 2-(5-fluoro-3-pyridyl)-N-[2-(1H-indol-3-yl)ethyl]-7,7-dimethyl-6,8-dihydropyrimido[5,4-b][1,4]oxazin-4-amine], 0.0162 µM; in that of `Cc1c[nH]c(=O)c(-c2nc3c(c(NCCc4c[nH]c5ccccc45)n2)OCCN3)c1` [Example 68, 3-[4-[2-(1H-indol-3-yl)ethylamino]-7,8-dihydro-6H-pyrimido[5,4-b][1,4]oxazin-2-yl]-5-methyl-pyridin-2-ol], 0.0331 µM.
On to `Cc1[nH]c2c(F)cc(F)cc2c1CCNc1nc(-c2ccc[nH]c2=O)nc2c1OCCN2` [Example 42, 3-(4-((2-(5,7-difluoro-2-methyl-1H-indol-3-yl)ethyl)amino)-7,8-dihydro-6H-pyrimido[5,4-b][1,4]oxazin-2-yl)pyridin-2-ol], for which, in assay [2], the IC50 was 0.209 µM.
Take `O=c1[nH]cccc1-c1nc2c(c(NCCc3c(Cl)[nH]c4ccccc34)n1)OCCN2` [Example 40, 3-(4-((2-(2-chloro-1H-indol-3-yl)ethyl)amino)-7,8-dihydro-6H-pyrimido[5,4-b][1,4]oxazin-2-yl)pyridin-2(1H)-one]: the IC50 in assay [2] is 0.0151 µM.
Still for that read-out and setting: under `COc1ncc(C)cc1-c1nc2c(c(NCCc3c[nH]c4ccccc34)n1)OCCN2` [Example 23, N-[2-(1H-indol-3-yl)ethyl]-2-(2-methoxy-5-methyl-3-pyridyl)-7,8-dihydro-6H-pyrimido[5,4-b][1,4]oxazin-4-amine] stands 0.457 µM; under `O=c1ccc(-c2nc3c(c(NCCc4c[nH]c5ccccc45)n2)OCCN3)c[nH]1` [Example 18, 5-[4-[2-(1H-indol-3-yl)ethylamino]-7,8-dihydro-6H-pyrimido[5,4-b][1,4]oxazin-2-yl]-1H-pyridin-2-one], 0.447 µM.
In the case of `Oc1ncccc1-c1nc2c(c(NCCc3c[nH]c4cc(OC(F)(F)F)ccc34)n1)OCCN2` [Example 43, 3-(4-((2-(6-(trifluoromethoxy)-1H-indol-3-yl)ethyl)amino)-7,8-dihydro-6H-pyrimido[5,4-b][1,4]oxazin-2-yl)pyridin-2(1H)-one], in assay [2], the IC50 is 0.00708 µM.
On the same count and under the same terms, under `Cc1[nH]c2c(F)cccc2c1CCNc1nc(-c2ccc[nH]c2=O)nc2c1OCCN2` [Example 41, 3-[4-[2-(7-fluoro-2-methyl-1H-indol-3-yl)ethylamino]-7,8-dihydro-6H-pyrimido[5,4-b][1,4]oxazin-2-yl]-1H-pyridin-2-one] stands 0.0195 µM.
On to `Cn1cc(-c2nc3c(c(NCCc4c[nH]c5ccccc45)n2)OCCN3)nn1` [Example 55, N-[2-(1H-indol-3-yl)ethyl]-2-(1-methyltriazol-4-yl)-7,8-dihydro-6H-pyrimido[5,4-b][1,4]oxazin-4-amine], for which the IC50 in assay [1] is above 2 µM.
Regarding `Cc1ncc(-c2nc3c(c(NCCc4c[nH]c5ccccc45)n2)OCCN3)cc1F` [Example 16, 2-(5-fluoro-6-methyl-3-pyridyl)-N-[2-(1H-indol-3-yl)ethyl]-7,8-dihydro-6H-pyrimido[5,4-b][1,4]oxazin-4-amine], the IC50 in assay [2] is 0.0331 µM.
On the same count and under the same terms, under `O=c1[nH]cc(Cl)cc1-c1nc2c(c(NCCc3c[nH]c4ccccc34)n1)OCCN2` [Example 72, 3-(4-((2-(1H-indol-3-yl)ethyl)amino)-7,8-dihydro-6H-pyrimido[5,4-b][1,4]oxazin-2-yl)-5-chloropyridin-2-ol] stands 0.0148 µM; under `O=c1[nH]cc(C(F)(F)F)cc1-c1nc2c(c(NCCc3c[nH]c4ccccc34)n1)OCCN2` [Example 69, 3-(4-((2-(1H-indol-3-yl)ethyl)amino)-7,8-dihydro-6H-pyrimido[5,4-b][1,4]oxazin-2-yl)-5-(trifluoromethyl)pyridin-2 (1H)-one], 0.0813 µM.

(Values after US20250129092A1, “COMPOUNDS USEFUL IN MODULATION OF AHR SIGNALLING” (JAGUAHR THERAPEUTICS PTE LTD, priority 2021, published 2025).)
